The supplement of paper PMC10307832

How the values were obtained:
Assay in all cases: relative viability (nuclei count vs DMSO), 5 days (fraction); higher = more cells survive
XMD14-99 + Vorinostat = compound: CN1CCN(CC1)C2=CC(=C(C=C2)NC3=NC(=C(S3)C(=O)C4=C(C=CC=C4Cl)Cl)N)OC [XMD14-99] + O=C(CCCCCCC(=O)Nc1ccccc1)NO [Vorinostat] (partner 1 µM)
In short: (§1)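 Relative viability was taken as the ratio of nuclei in treated wells to nuclei in vehicle wells. Lung cancer cell lines in 1536-well plates received compounds by pin tool one day after seeding, either one drug alone or a fixed anchor-drug dose plus five library-drug doses (not always all listed) in √10 steps. Nuclei were counted on 4× images after 5 days of treatment, and values are medians of duplicate plates.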

AZD1208 + Navitoclax = compound: N[C@@H]1CCCN(c2c(/C=C3\SC(=O)NC3=O)cccc2-c2ccccc2)C1 [AZD1208] + CC1(C)CCC(c2ccc(Cl)cc2)=C(CN2CCN(c3ccc(C(=O)NS(=O)(=O)c4ccc(N[C@H](CCN5CCOCC5)CSc5ccccc5)c(S(=O)(=O)C(F)(F)F)c4)cc3)CC2)C1 [Navitoclax] (partner 0.5 µM)
In short: as §1

XMD14-99 + Foretinib = compound: CN1CCN(CC1)C2=CC(=C(C=C2)NC3=NC(=C(S3)C(=O)C4=C(C=CC=C4Cl)Cl)N)OC [XMD14-99] + COc1cc2c(Oc3ccc(NC(=O)C4(C(=O)Nc5ccc(F)cc5)CC4)cc3F)ccnc2cc1OCCCN1CCOCC1 [Foretinib] (partner 0.25 µM)
In short: as §1

AZD1208 + Trametinib = compound: N[C@@H]1CCCN(c2c(/C=C3\SC(=O)NC3=O)cccc2-c2ccccc2)C1 [AZD1208] + CC(=O)Nc1cccc(-n2c(=O)n(C3CC3)c(=O)c3c(Nc4ccc(I)cc4F)n(C)c(=O)c(C)c32)c1 [Trametinib] (partner 0.02 µM)
In short: as §1

Cell Line	relative viability (XMD14-99 + Vorinostat; first compound 0.08 µM)	relative viability (XMD14-99 + Vorinostat; first compound 0.8 µM)	relative viability (XMD14-99 + Vorinostat; first compound 2.53 µM)	relative viability (XMD14-99 + Vorinostat; first compound 8 µM)	relative viability (AZD1208 + Navitoclax; first compound 0.08 µM)	relative viability (AZD1208 + Navitoclax; first compound 0.253 µM)	relative viability (AZD1208 + Navitoclax; first compound 0.8 µM)	relative viability (AZD1208 + Navitoclax; first compound 2.53 µM)	relative viability (AZD1208 + Navitoclax; first compound 8 µM)	relative viability (XMD14-99 + Foretinib; first compound 0.08 µM)	relative viability (XMD14-99 + Foretinib; first compound 0.8 µM)	relative viability (XMD14-99 + Foretinib; first compound 2.53 µM)	relative viability (XMD14-99 + Foretinib; first compound 8 µM)	relative viability (AZD1208 + Trametinib; first compound 0.08 µM)	relative viability (AZD1208 + Trametinib; first compound 0.253 µM)	relative viability (AZD1208 + Trametinib; first compound 0.8 µM)	relative viability (AZD1208 + Trametinib; first compound 2.53 µM)	relative viability (AZD1208 + Trametinib; first compound 8 µM)
HCC-827	0.929	0.571	0.74	0.701	1.05	1.11	0.984	1.07	0.983	1.06	0.935	0.978	0.727	0.557	0.516	0.536	0.524	0.398
HOP-62	0.668	0.804	0.661	0.441	1.05	0.886	1.05	0.969	1.07	1.01	1.05	1.02	1.01	0.372	0.381	0.379	0.377	0.322
IA-LM	0.96	0.728	0.649	0.515	0.812	0.865	0.651	0.621	0.794	1.05	0.964	0.978	0.458	–	–	–	–	–
LC-2-ad	0.672	0.704	0.646	0.553	0.36	0.356	0.331	0.397	0.489	1	1.01	0.849	0.836	0.92	0.917	0.664	0.933	0.935
LCLC-97TM1	0.732	0.661	0.604	0.315	0.369	0.271	–	0.446	0.21	0.918	0.855	0.918	0.641	0.21	0.172	0.137	0.183	0.162
LCLC-103H	0.786	0.798	0.759	0.664	–	–	–	–	–	0.802	0.691	0.734	0.607	0.63	0.651	0.683	0.686	0.681
LK-2	0.364	0.396	0.548	0.462	0.77	0.523	0.494	0.433	0.347	0.99	1.17	0.991	1.2	0.574	0.502	0.511	0.445	0.474
LOU-NH91	0.947	1.03	0.805	0.725	0.689	0.709	0.648	0.638	0.577	0.919	0.962	0.916	0.802	0.785	0.786	0.759	0.825	0.728
LU99A	0.53	0.462	0.444	0.37	0.805	0.855	0.864	0.712	0.514	0.893	0.872	0.729	0.649	0.574	0.575	0.515	0.508	0.446
LXF-289	0.754	0.696	0.726	0.738	0.955	1.01	0.932	0.978	1.03	0.964	0.949	0.923	0.898	0.678	0.629	0.673	0.694	0.747
NCI-H23	0.641	0.581	0.604	0.464	0.843	1.18	0.721	0.712	0.646	0.908	0.981	0.843	0.821	0.361	0.301	0.272	0.347	0.303
NCI-H358	0.686	0.653	0.553	0.309	–	–	–	–	–	0.759	0.745	0.574	0.392	0.118	0.109	0.12	0.12	0.102
NCI-H522	0.809	0.889	0.757	0.956	–	–	–	–	–	–	–	–	–	0.686	0.663	0.55	0.635	0.677
NCI-H650	0.348	0.455	0.439	0.411	–	–	–	–	–	1.05	1.01	0.944	0.935	0.852	0.904	1.1	0.93	0.743
NCI-H661	0.807	0.768	0.627	0.522	–	–	–	–	–	0.93	0.883	0.796	0.681	0.549	0.565	0.544	0.543	0.514
NCI-H1299	–	–	–	–	1.1	1.09	1.08	1	1.04	1.11	1.02	1.1	0.949	–	–	–	–	–
NCI-H1563	–	–	–	–	–	–	–	–	–	0.878	0.941	0.871	0.74	–	–	–	–	–
NCI-H1623	–	–	–	–	–	–	–	–	–	0.852	0.86	0.88	0.68	–	–	–	–	–
NCI-H1648	0.397	0.287	0.437	0.395	–	–	–	–	–	–	–	–	–	0.588	0.441	0.435	0.402	0.497
NCI-H1703	–	–	–	–	0.98	1.19	0.88	0.878	0.783	0.345	0.329	0.339	0.273	–	–	–	–	–
NCI-H1792	–	–	–	–	0.678	0.779	0.531	0.645	0.557	–	–	–	–	0.424	0.368	–	0.312	0.306
NCI-H2342	0.747	0.703	0.872	0.989	–	–	–	–	–	1.15	0.943	0.973	0.784	0.803	0.806	0.781	0.678	0.637
SW 900	0.509	0.667	0.489	0.432	–	–	–	–	–	1.02	0.694	0.802	0.718	0.721	0.941	0.697	0.641	0.708
